Reference: US11000033B2, “Ketone or oxime compound, and herbicide” (NISSAN CHEMICAL CORPORATION, priority 2014, dated 2021)

What was measured:
Type in all cases: in vivo
[1] = test system: Lolium multiflorum Lam.; assay: Test Example 4: herbicidal effect by soil treatment (symbol K); conditions: for K (Lolium multiflorum Lam.) herbicidal effect grade / Herbicidal effect grade, K: Lolium multiflorum Lam.: application herbicide amount 320 g/ha; for K: Lolium multiflorum Lam., herbicidal effect grade: 320 g/ha
Procedure, shortened: (§1)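 Seeds were sown in sterilized diluvial soil, covered with about 1.5 cm of soil, and the soil surface was sprayed with a water-diluted emulsion of the compound at a predetermined rate. Plants grew in a greenhouse at 25° C. to 30° C.; effects were scored visually 3 weeks after application.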

[2] = test system: Galium spurium; assay: Test Example 4: herbicidal effect by soil treatment (symbol Q); conditions: application herbicide amount 320 g/ha
Procedure, shortened: as §1

[3] = test system: Alopecurus myosuroides; assay: Test Example 4: herbicidal effect by soil treatment (symbol J); conditions: for J (Alopecurus myosuroides) herbicidal effect grade / Herbicidal effect grade, J: Alopecurus myosuroides: application herbicide amount 320 g/ha; for J: Alopecurus myosuroides, herbicidal effect grade: 320 g/ha
Procedure, shortened: as §1

[4] = test system: Echinochloa crus-galli var. crus-galli; assay: Test Example 4: herbicidal effect by soil treatment (symbol H); conditions: for H (Echinochloa crus-galli var. crus-galli) herbicidal effect grade / Herbicidal effect grade, H: Echinochloa crus-galli var. crus-galli: application herbicide amount 320 g/ha; for H: Echinochloa crus-galli var. crus-galli, herbicidal effect grade: 320 g/ha
Procedure, shortened: as §1

[5] = test system: Chenopodium album; assay: Test Example 4: herbicidal effect by soil treatment (symbol O); conditions: for O (Chenopodium album) herbicidal effect grade / Herbicidal effect grade, O: Chenopodium album: application herbicide amount 320 g/ha; for O: Chenopodium album, herbicidal effect grade: 320 g/ha
Procedure, shortened: as §1

[6] = test system: Stellaria media; assay: Test Example 4: herbicidal effect by soil treatment (symbol P); conditions: for P (Stellaria media) herbicidal effect grade / Herbicidal effect grade, P: Stellaria media: application herbicide amount 320 g/ha; for P: Stellaria media, herbicidal effect grade: 320 g/ha
Procedure, shortened: as §1

Compound: CC(CC1CC(O)=C(c2c(C)cc(C)cc2C)C1=O)=NOCC1CC1 (stereo not drawn) [1-024]
- K (Lolium multiflorum Lam.) herbicidal effect grade [1]: 5 (Herbicidal ratio of 90% or more (almost completely withered))
- Q (Galium spurium) herbicidal effect grade [2]: 0 (Herbicidal ratio of 5% or lower (almost no effect))
- J (Alopecurus myosuroides) herbicidal effect grade [3]: 5 (Herbicidal ratio of 90% or more (almost completely withered))
- H (Echinochloa crus-galli var. crus-galli) herbicidal effect grade [4]: 5 (Herbicidal ratio of 90% or more (almost completely withered))

Compound: CC(CC1CC(O)=C(c2c(C)cc(C)cc2C)C1=O)=NOCc1ccccc1F (stereo not drawn) [1-026]
- K (Lolium multiflorum Lam.) herbicidal effect grade [1]: 5 (Herbicidal ratio of 90% or more (almost completely withered))
- Q (Galium spurium) herbicidal effect grade [2]: 0 (Herbicidal ratio of 5% or lower (almost no effect))
- J (Alopecurus myosuroides) herbicidal effect grade [3]: 5 (Herbicidal ratio of 90% or more (almost completely withered))
- H (Echinochloa crus-galli var. crus-galli) herbicidal effect grade [4]: 5 (Herbicidal ratio of 90% or more (almost completely withered))

Compound: CC(CC1CC(O)=C(c2c(C)cc(C)cc2C)C1=O)=NOCC(C)O (stereo not drawn) [1-027]
- K (Lolium multiflorum Lam.) herbicidal effect grade [1]: 5 (Herbicidal ratio of 90% or more (almost completely withered))
- Q (Galium spurium) herbicidal effect grade [2]: 0 (Herbicidal ratio of 5% or lower (almost no effect))
- J (Alopecurus myosuroides) herbicidal effect grade [3]: 5 (Herbicidal ratio of 90% or more (almost completely withered))
- H (Echinochloa crus-galli var. crus-galli) herbicidal effect grade [4]: 5 (Herbicidal ratio of 90% or more (almost completely withered))

Compound: CCCCCCCON=C(C)CC1CC(O)=C(c2c(C)cc(C)cc2C)C1=O (stereo not drawn) [1-054]
- K (Lolium multiflorum Lam.) herbicidal effect grade [1]: 5 (Herbicidal ratio of 90% or more (almost completely withered))
- O (Chenopodium album) herbicidal effect grade [5]: 0 (Herbicidal ratio of 5% or lower (almost no effect))
- J (Alopecurus myosuroides) herbicidal effect grade [3]: 1 (Herbicidal ratio of 5% or higher and lower than 20%)
- P (Stellaria media) herbicidal effect grade [6]: 0 (Herbicidal ratio of 5% or lower (almost no effect))
- H (Echinochloa crus-galli var. crus-galli) herbicidal effect grade [4]: 4 (Herbicidal ratio of 70% or higher and lower than 90%)

Compound: CC(CC1CC(O)=C(c2c(C)cc(C)cc2C)C1=O)=NOCC[Si](C)(C)C (stereo not drawn) [1-055]
- K (Lolium multiflorum Lam.) herbicidal effect grade [1]: 5 (Herbicidal ratio of 90% or more (almost completely withered))
- O (Chenopodium album) herbicidal effect grade [5]: 0 (Herbicidal ratio of 5% or lower (almost no effect))
- J (Alopecurus myosuroides) herbicidal effect grade [3]: 1 (Herbicidal ratio of 5% or higher and lower than 20%)
- P (Stellaria media) herbicidal effect grade [6]: 0 (Herbicidal ratio of 5% or lower (almost no effect))
- H (Echinochloa crus-galli var. crus-galli) herbicidal effect grade [4]: 4 (Herbicidal ratio of 70% or higher and lower than 90%)

Compound: CON=C(C)CC1CC(OC(=O)C(C)Oc2ccccc2)=C(c2c(C)cc(C)cc2C)C1=O (stereo not drawn) [1-060]
- K (Lolium multiflorum Lam.) herbicidal effect grade [1]: 5 (Herbicidal ratio of 90% or more (almost completely withered))
- O (Chenopodium album) herbicidal effect grade [5]: 0 (Herbicidal ratio of 5% or lower (almost no effect))
- J (Alopecurus myosuroides) herbicidal effect grade [3]: 5 (Herbicidal ratio of 90% or more (almost completely withered))
- P (Stellaria media) herbicidal effect grade [6]: 0 (Herbicidal ratio of 5% or lower (almost no effect))
- H (Echinochloa crus-galli var. crus-galli) herbicidal effect grade [4]: 5 (Herbicidal ratio of 90% or more (almost completely withered))

Compound: CON=C(C)CC1CC(OC(=O)COc2ccc(Cl)cc2Cl)=C(c2c(C)cc(C)cc2C)C1=O (stereo not drawn) [1-075]
- K (Lolium multiflorum Lam.) herbicidal effect grade [1]: 5 (Herbicidal ratio of 90% or more (almost completely withered))
- O (Chenopodium album) herbicidal effect grade [5]: 0 (Herbicidal ratio of 5% or lower (almost no effect))
- J (Alopecurus myosuroides) herbicidal effect grade [3]: 5 (Herbicidal ratio of 90% or more (almost completely withered))
- P (Stellaria media) herbicidal effect grade [6]: 0 (Herbicidal ratio of 5% or lower (almost no effect))
- H (Echinochloa crus-galli var. crus-galli) herbicidal effect grade [4]: 5 (Herbicidal ratio of 90% or more (almost completely withered))

Compound: CON=C(C)CC1CC(OC(=O)COc2ccc(C=O)cc2)=C(c2c(C)cc(C)cc2C)C1=O (stereo not drawn) [1-079]
- K: Lolium multiflorum Lam., herbicidal effect grade [1]: 5 (Herbicidal ratio of 90% or more (almost completely withered))
- O: Chenopodium album, herbicidal effect grade [5]: 0 (Herbicidal ratio of 5% or lower (almost no effect))
- J: Alopecurus myosuroides, herbicidal effect grade [3]: 5 (Herbicidal ratio of 90% or more (almost completely withered))
- P: Stellaria media, herbicidal effect grade [6]: 0 (Herbicidal ratio of 5% or lower (almost no effect))
- H: Echinochloa crus-galli var. crus-galli, herbicidal effect grade [4]: 5 (Herbicidal ratio of 90% or more (almost completely withered))

Compound: CON=C(C)CC1CC(OC(=O)COc2ccc(Br)cc2)=C(c2c(C)cc(C)cc2C)C1=O (stereo not drawn) [1-081]
- K: Lolium multiflorum Lam., herbicidal effect grade [1]: 5 (Herbicidal ratio of 90% or more (almost completely withered))
- O: Chenopodium album, herbicidal effect grade [5]: 0 (Herbicidal ratio of 5% or lower (almost no effect))
- J: Alopecurus myosuroides, herbicidal effect grade [3]: 5 (Herbicidal ratio of 90% or more (almost completely withered))
- P: Stellaria media, herbicidal effect grade [6]: 0 (Herbicidal ratio of 5% or lower (almost no effect))
- H: Echinochloa crus-galli var. crus-galli, herbicidal effect grade [4]: 5 (Herbicidal ratio of 90% or more (almost completely withered))

Compound: CON=C(C)CC1CC(OC(=O)COc2ccc3ccccc3c2)=C(c2c(C)cc(C)cc2C)C1=O (stereo not drawn) [1-083]
- K: Lolium multiflorum Lam., herbicidal effect grade [1]: 5 (Herbicidal ratio of 90% or more (almost completely withered))
- O: Chenopodium album, herbicidal effect grade [5]: 0 (Herbicidal ratio of 5% or lower (almost no effect))
- J: Alopecurus myosuroides, herbicidal effect grade [3]: 5 (Herbicidal ratio of 90% or more (almost completely withered))
- P: Stellaria media, herbicidal effect grade [6]: 0 (Herbicidal ratio of 5% or lower (almost no effect))
- H: Echinochloa crus-galli var. crus-galli, herbicidal effect grade [4]: 5 (Herbicidal ratio of 90% or more (almost completely withered))

Compound: CON=C(CC1CC(O)=C(c2c(C)cc(C)cc2C)C1=O)C1CCCCC1 (stereo not drawn) [1-085]
- K: Lolium multiflorum Lam., herbicidal effect grade [1]: 3 (Herbicidal ratio of 40% or higher and lower than 70%)
- O: Chenopodium album, herbicidal effect grade [5]: 0 (Herbicidal ratio of 5% or lower (almost no effect))
- J: Alopecurus myosuroides, herbicidal effect grade [3]: 3 (Herbicidal ratio of 40% or higher and lower than 70%)
- P: Stellaria media, herbicidal effect grade [6]: 0 (Herbicidal ratio of 5% or lower (almost no effect))
- H: Echinochloa crus-galli var. crus-galli, herbicidal effect grade [4]: 1 (Herbicidal ratio of 5% or higher and lower than 20%)

Compound: C=CC(CC1CC(O)=C(c2c(C)cc(C)cc2C)C1=O)=NOC (stereo not drawn) [1-086]
- K: Lolium multiflorum Lam., herbicidal effect grade [1]: 5 (Herbicidal ratio of 90% or more (almost completely withered))
- O: Chenopodium album, herbicidal effect grade [5]: 0 (Herbicidal ratio of 5% or lower (almost no effect))
- J: Alopecurus myosuroides, herbicidal effect grade [3]: 3 (Herbicidal ratio of 40% or higher and lower than 70%)
- P: Stellaria media, herbicidal effect grade [6]: 0 (Herbicidal ratio of 5% or lower (almost no effect))
- H: Echinochloa crus-galli var. crus-galli, herbicidal effect grade [4]: 1 (Herbicidal ratio of 5% or higher and lower than 20%)

Compound: CON=C(C)CC1CC(OC(=O)C2=CCCC2)=C(c2c(C)cc(C)cc2C)C1=O (stereo not drawn) [1-088]
- K: Lolium multiflorum Lam., herbicidal effect grade [1]: 5 (Herbicidal ratio of 90% or more (almost completely withered))
- O: Chenopodium album, herbicidal effect grade [5]: 0 (Herbicidal ratio of 5% or lower (almost no effect))
- J: Alopecurus myosuroides, herbicidal effect grade [3]: 5 (Herbicidal ratio of 90% or more (almost completely withered))
- P: Stellaria media, herbicidal effect grade [6]: 0 (Herbicidal ratio of 5% or lower (almost no effect))
- H: Echinochloa crus-galli var. crus-galli, herbicidal effect grade [4]: 5 (Herbicidal ratio of 90% or more (almost completely withered))

Compound: CON=C(C)CC1CC(OC(=O)C2=C(Br)CCC2)=C(c2c(C)cc(C)cc2C)C1=O (stereo not drawn) [1-089]
- K: Lolium multiflorum Lam., herbicidal effect grade [1]: 5 (Herbicidal ratio of 90% or more (almost completely withered))
- O: Chenopodium album, herbicidal effect grade [5]: 0 (Herbicidal ratio of 5% or lower (almost no effect))
- J: Alopecurus myosuroides, herbicidal effect grade [3]: 5 (Herbicidal ratio of 90% or more (almost completely withered))
- P: Stellaria media, herbicidal effect grade [6]: 0 (Herbicidal ratio of 5% or lower (almost no effect))
- H: Echinochloa crus-galli var. crus-galli, herbicidal effect grade [4]: 5 (Herbicidal ratio of 90% or more (almost completely withered))

Compound: CCCC=CC(=O)OC1=C(c2c(C)cc(C)cc2C)C(=O)C(CC(C)=NOC)C1 (stereo not drawn) [1-090]
- K: Lolium multiflorum Lam., herbicidal effect grade [1]: 5 (Herbicidal ratio of 90% or more (almost completely withered))
- O: Chenopodium album, herbicidal effect grade [5]: 0 (Herbicidal ratio of 5% or lower (almost no effect))
- J: Alopecurus myosuroides, herbicidal effect grade [3]: 5 (Herbicidal ratio of 90% or more (almost completely withered))
- P: Stellaria media, herbicidal effect grade [6]: 0 (Herbicidal ratio of 5% or lower (almost no effect))
- H: Echinochloa crus-galli var. crus-galli, herbicidal effect grade [4]: 5 (Herbicidal ratio of 90% or more (almost completely withered))

Compound: CON=C(C)CC1CC(OC(=O)COCc2ccccc2)=C(c2c(C)cc(C)cc2C)C1=O (stereo not drawn) [1-094]
- K: Lolium multiflorum Lam., herbicidal effect grade [1]: 5 (Herbicidal ratio of 90% or more (almost completely withered))
- O: Chenopodium album, herbicidal effect grade [5]: 0 (Herbicidal ratio of 5% or lower (almost no effect))
- J: Alopecurus myosuroides, herbicidal effect grade [3]: 5 (Herbicidal ratio of 90% or more (almost completely withered))
- P: Stellaria media, herbicidal effect grade [6]: 0 (Herbicidal ratio of 5% or lower (almost no effect))
- H: Echinochloa crus-galli var. crus-galli, herbicidal effect grade [4]: 5 (Herbicidal ratio of 90% or more (almost completely withered))

Compound: CC(=O)CC1CC(O)=C(c2c(C)cc(-c3ccc(OC(F)(F)F)cc3)cc2C)C1=O (stereo not drawn) [7-016]
- Herbicidal effect grade, K: Lolium multiflorum Lam. [1]: 0 (Herbicidal ratio of 5% or lower (almost no effect))
- Herbicidal effect grade, O: Chenopodium album [5]: 0 (Herbicidal ratio of 5% or lower (almost no effect))
- Herbicidal effect grade, J: Alopecurus myosuroides [3]: 0 (Herbicidal ratio of 5% or lower (almost no effect))
- Herbicidal effect grade, P: Stellaria media [6]: 0 (Herbicidal ratio of 5% or lower (almost no effect))
- Herbicidal effect grade, H: Echinochloa crus-galli var. crus-galli [4]: 2 (Herbicidal ratio of 20% or higher and lower than 40%)

Compound: CON=C(CC1CC(O)=C(c2c(C)cc(Br)cc2C)C1=O)C1CC1 (stereo not drawn) [9-002]
- Herbicidal effect grade, K: Lolium multiflorum Lam. [1]: 5 (Herbicidal ratio of 90% or more (almost completely withered))
- Herbicidal effect grade, O: Chenopodium album [5]: 0 (Herbicidal ratio of 5% or lower (almost no effect))
- Herbicidal effect grade, J: Alopecurus myosuroides [3]: 5 (Herbicidal ratio of 90% or more (almost completely withered))
- Herbicidal effect grade, P: Stellaria media [6]: 0 (Herbicidal ratio of 5% or lower (almost no effect))
- Herbicidal effect grade, H: Echinochloa crus-galli var. crus-galli [4]: 5 (Herbicidal ratio of 90% or more (almost completely withered))
